Test results from the supplement of paper PMC10307832.

Compound: CCn1c(-c2nonc2N)nc2c(C#CC(C)(C)O)ncc(OC[C@H]3CCCNC3)c21 + Cc1nc(Nc2ncc(C(=O)Nc3c(C)cccc3Cl)s2)cc(N2CCN(CCO)CC2)n1 [Dasatinib] (partner 0.075 µM)
Test: relative viability (nuclei count vs DMSO), 5 days (fraction); higher = more cells survive
Details: first compound 0.01 µM
Outline: (§1)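 Relative viability is defined as nuclei in treated wells over nuclei in vehicle wells. Duplicate plates were run and medians reported. Lung cancer cell lines in 1536-well plates were dosed by pin tool one day after seeding, with one drug or with a fixed anchor-drug dose plus five library-drug doses (not always all listed) in √10 steps, and nuclei were counted after 5 days.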

Cell Line | relative viability
NCI-H2405 | 0.199
HOP-62 | 0.64
LU99A | 0.499
BEN | 0.308
HARA | 0.239
HCC-78 | 0.344
NCI-H322M | 0.246
LCLC-97TM1 | 0.799
NCI-H2009 | 0.257
A-427 | 0.624
NCI-H441 | 0.585
NCI-H661 | 0.996
NCI-H1734 | 0.473
NCI-H460 | 0.526
NCI-H2347 | 0.317
SK-LU-1 | 0.191
201T | 0.576
NCI-H1915 | 0.295

Same assay, conditions: first compound 0.03162 µM

Cell Line | relative viability
SW 1573 | 0.561
NCI-H838 | 0.267
LCLC-103H | 0.451
NCI-H520 | 0.2
NCI-H2126 | 0.468
EMC-BAC-2 | 0.29
NCI-H2085 | 0.272
HCC-366 | 0.6
NCI-H1666 | 0.99
NCI-H596 | 0.67
NCI-H2087 | 0.751
H3255 | 0.412
COR-L23 | 0.445
COR-L 105 | 0.326
LOU-NH91 | 0.575
ChaGo-K-1 | 0.636
NCI-H2405 | 0.216

Cell Line | relative viability
HOP-62 | 0.587
LU99A | 0.508
BEN | 0.289
HARA | 0.239
HCC-78 | 0.361
NCI-H322M | 0.233
LCLC-97TM1 | 0.982
NCI-H2009 | 0.33
A-427 | 0.716
NCI-H441 | 0.593
NCI-H661 | 0.86
NCI-H1734 | 0.475
NCI-H460 | 0.461
NCI-H2347 | 0.264
SK-LU-1 | 0.161
201T | 0.644
NCI-H1915 | 0.309

Same assay, conditions: first compound 0.1 µM

Cell Line | relative viability
SW 1573 | 0.431
NCI-H838 | 0.283
LCLC-103H | 0.445
NCI-H520 | 0.181
NCI-H2126 | 0.597
EMC-BAC-2 | 0.333
NCI-H2085 | 0.278
HCC-366 | 0.602
NCI-H1666 | 0.833
NCI-H596 | 0.563
NCI-H2087 | 0.936
H3255 | 0.378
COR-L23 | 0.505
COR-L 105 | 0.357
LOU-NH91 | 0.543
ChaGo-K-1 | 0.55
NCI-H2405 | 0.216

Cell Line | relative viability
HOP-62 | 0.66
LU99A | 0.662
BEN | 0.304
HARA | 0.245
HCC-78 | 0.423
NCI-H322M | 0.245
LCLC-97TM1 | 0.803
NCI-H2009 | 0.287
A-427 | 0.729
NCI-H441 | 0.499
NCI-H661 | 0.9
NCI-H1734 | 0.414
NCI-H460 | 0.533
SK-LU-1 | 0.199
201T | 0.516
NCI-H1915 | 0.324

Same assay, conditions: first compound 0.3162 µM

Cell Line | relative viability
SW 1573 | 0.455
NCI-H838 | 0.296
LCLC-103H | 0.444
NCI-H520 | 0.159
NCI-H2126 | 0.579
EMC-BAC-2 | 0.297
NCI-H2085 | 0.255
HCC-366 | 0.593
NCI-H1666 | 0.819
NCI-H596 | 0.48
NCI-H2087 | 0.795
H3255 | 0.284
COR-L23 | 0.467
COR-L 105 | 0.353
LOU-NH91 | 0.537
ChaGo-K-1 | 0.58
NCI-H2405 | 0.214

Cell Line | relative viability
HOP-62 | 0.659
LU99A | 0.51
BEN | 0.337
HARA | 0.218
HCC-78 | 0.291
NCI-H322M | 0.264
LCLC-97TM1 | 0.739
NCI-H2009 | 0.254
A-427 | 0.729
NCI-H441 | 0.637
NCI-H661 | 0.751
NCI-H1734 | 0.407
NCI-H460 | 0.45
NCI-H2347 | 0.274
SK-LU-1 | 0.188
201T | 0.51
NCI-H1915 | 0.302

Same assay, conditions: first compound 1 µM

Cell Line | relative viability
SW 1573 | 0.354
NCI-H838 | 0.279
LCLC-103H | 0.433
NCI-H520 | 0.134
NCI-H2126 | 0.677
EMC-BAC-2 | 0.34
NCI-H2085 | 0.228
HCC-366 | 0.606
NCI-H1666 | 0.771
NCI-H596 | 0.554
NCI-H2087 | 0.913
H3255 | 0.305
COR-L23 | 0.534
COR-L 105 | 0.287
LOU-NH91 | 0.337
ChaGo-K-1 | 0.6
NCI-H2405 | 0.213

Cell Line | relative viability
HOP-62 | 0.607
LU99A | 0.451
BEN | 0.398
HARA | 0.288
HCC-78 | 0.389
NCI-H322M | 0.271
LCLC-97TM1 | 0.845
NCI-H2009 | 0.283
A-427 | 0.793
NCI-H441 | 0.505
NCI-H661 | 0.764
NCI-H1734 | 0.38
NCI-H460 | 0.516
NCI-H2347 | 0.334
SK-LU-1 | 0.158
201T | 0.597
NCI-H1915 | 0.368

Compound: CCn1c(-c2nonc2N)nc2c(C#CC(C)(C)O)ncc(OC[C@H]3CCCNC3)c21 + O=C(CCCCCCC(=O)Nc1ccccc1)NO [Vorinostat] (partner 1 µM)
Test: as above
Details: first compound 0.01 µM
Outline: as §1

Cell Line | relative viability
SW 1573 | 0.374
NCI-H838 | 0.728
LCLC-103H | 0.87
NCI-H520 | 0.706
NCI-H2126 | 0.754
EMC-BAC-2 | 0.203
NCI-H2085 | 0.822
HCC-366 | 0.278
NCI-H1666 | 1.02
NCI-H596 | 0.569
NCI-H2087 | 0.971
H3255 | 0.832
COR-L23 | 0.433
COR-L 105 | 0.913
LOU-NH91 | 0.899
ChaGo-K-1 | 0.758
NCI-H2405 | 0.811

Cell Line | relative viability
HOP-62 | 0.635
LU99A | 0.52
BEN | 0.635
HARA | 0.487
HCC-78 | 0.434
NCI-H322M | 0.75
LCLC-97TM1 | 0.8
NCI-H2009 | 0.726
A-427 | 0.857
NCI-H441 | 0.786
NCI-H661 | 0.787
NCI-H1734 | 0.773
NCI-H460 | 0.722
NCI-H2347 | 0.602
SK-LU-1 | 0.767
201T | 0.952
NCI-H1915 | 0.57

Same assay, conditions: first compound 0.03162 µM

Cell Line | relative viability
SW 1573 | 0.82
NCI-H838 | 0.786
LCLC-103H | 0.752
NCI-H520 | 0.711
NCI-H2126 | 0.743
NCI-H2085 | 0.785
HCC-366 | 0.3
NCI-H1666 | 1.07
H3255 | 0.704
COR-L23 | 0.558
COR-L 105 | 0.804
LOU-NH91 | 0.828
ChaGo-K-1 | 0.757
NCI-H2405 | 0.838
HOP-62 | 0.688
LU99A | 0.531

Cell Line | relative viability
BEN | 0.617
HARA | 0.488
HCC-78 | 0.452
NCI-H322M | 0.724
LCLC-97TM1 | 0.722
NCI-H2009 | 0.708
A-427 | 0.858
NCI-H441 | 0.85
NCI-H661 | 0.788
NCI-H1734 | 0.857
NCI-H460 | 0.857
NCI-H2347 | 0.522
SK-LU-1 | 0.781
201T | 0.995
NCI-H1915 | 0.526

Same assay, conditions: first compound 0.1 µM

Cell Line | relative viability
SW 1573 | 0.451
NCI-H838 | 0.722
LCLC-103H | 0.725
NCI-H520 | 0.585
NCI-H2126 | 0.791
EMC-BAC-2 | 0.448
NCI-H2085 | 0.785
HCC-366 | 0.329
NCI-H1666 | 0.986
NCI-H596 | 0.553
NCI-H2087 | 0.706
H3255 | 0.815
COR-L23 | 0.437
COR-L 105 | 0.915
LOU-NH91 | 1
ChaGo-K-1 | 0.777
NCI-H2405 | 0.913

Cell Line | relative viability
HOP-62 | 0.644
LU99A | 0.46
BEN | 0.569
HARA | 0.638
HCC-78 | 0.455
NCI-H322M | 0.754
LCLC-97TM1 | 0.774
NCI-H2009 | 0.788
A-427 | 0.844
NCI-H441 | 0.937
NCI-H661 | 0.788
NCI-H1734 | 0.744
NCI-H460 | 0.757
NCI-H2347 | 0.611
SK-LU-1 | 0.78
201T | 0.919
NCI-H1915 | 0.474

Same assay, conditions: first compound 0.3162 µM

Cell Line | relative viability
SW 1573 | 0.367
NCI-H838 | 0.685
LCLC-103H | 0.757
NCI-H520 | 0.543
NCI-H2126 | 0.741
EMC-BAC-2 | 0.429
NCI-H2085 | 0.712
HCC-366 | 0.367
NCI-H1666 | 1
NCI-H596 | 0.58
NCI-H2087 | 0.517
H3255 | 0.693
COR-L23 | 0.368
COR-L 105 | 0.724
LOU-NH91 | 0.767
ChaGo-K-1 | 0.724
NCI-H2405 | 0.854

Cell Line | relative viability
HOP-62 | 0.555
LU99A | 0.453
BEN | 0.56
HARA | 0.44
HCC-78 | 0.416
NCI-H322M | 0.702
LCLC-97TM1 | 0.624
NCI-H2009 | 0.706
A-427 | 0.783
NCI-H441 | 0.614
NCI-H661 | 0.742
NCI-H1734 | 0.7
NCI-H460 | 0.64
NCI-H2347 | 0.543
SK-LU-1 | 0.677
201T | 0.894
NCI-H1915 | 0.513

Same assay, conditions: first compound 1 µM

Cell Line | relative viability
SW 1573 | 0.499
NCI-H838 | 0.711
LCLC-103H | 0.81
NCI-H520 | 0.5
NCI-H2126 | 0.792
EMC-BAC-2 | 0.448
NCI-H2085 | 0.796
HCC-366 | 0.372
NCI-H1666 | 0.942
NCI-H596 | 0.633
NCI-H2087 | 0.96
H3255 | 0.448
COR-L23 | 0.387
COR-L 105 | 0.707
LOU-NH91 | 0.794
ChaGo-K-1 | 0.776
NCI-H2405 | 1.06

Cell Line | relative viability
HOP-62 | 0.644
LU99A | 0.571
BEN | 0.667
HARA | 0.532
HCC-78 | 0.436
NCI-H322M | 0.869
LCLC-97TM1 | 0.664
NCI-H2009 | 0.821
A-427 | 0.889
NCI-H441 | 0.663
NCI-H661 | 0.735
NCI-H1734 | 0.74
NCI-H460 | 0.767
NCI-H2347 | 0.55
SK-LU-1 | 0.767
201T | 0.958
NCI-H1915 | 0.5
